Experimental data: patent US20230256094A1, “CANCER RADIOSENSITIZATION BY IN SITU FORMATION OF GOLD NANOPARTICLES AND/OR GOLD NANOCLUSTERS” (BOARD OF REGENTS, THE UNIVERSITY OF TEXAS SYSTEM, priority 2020, published 2023)

Key:
pancreatic cancer = details: in combination with SBRT; cited from earlier work
[1] = test system: pancreatic cancer cells (MIAPACA2); assay: Confocal fluorescence imaging of in situ GNC synthesis; type: cell-based, human
Method: FIG. 4 presents fluorescence confocal images of non-cancerous (HPDE) and cancerous (MIAPaCa2) pancreatic cells treated with either 1 mM of Au^3+ gold ions or premade albumin-GNCs at 1 mM Au^0 for 24 hours. (From left to right) Cells: untreated; treated with albumin-GNCs; treated with Au^3+ gold ions. […] The strong red fluorescence in cancer cells indicated intracellular synthesis of GNCs from gold ions. Scale bars are 25 μm.
We compared in situ synthesis of GNCs by pancreatic cancer cells (MIAPACA2) and pancreatic noncancerous cells (HPDE) (FIG. 4). Confocal fluorescence images were obtained using a Leica TCS SP8 confocal microscope with 561 nm excitation and 610 nm emission optimized for detection of GNCs.

[2] = test system: 3T3 mouse fibroblast cells; assay: MTS assay of radiosensitization after X-ray irradiation; type: cell-based; details: 1 mM, 10 hours; X-rays at 4 and 6 Gy
Method: Our initial evaluation of radiosensitization via intracellular GNP formation was performed with 3T3 mouse fibroblast cells. […] Radiosensitization with intracellular GNC formation (i.e., delivery of Au^3+) was compared with pre-fabricated albumin-coated GNCs (Albumin-GNC) prepared according to work by Xie^46 and control cells without treatment via MTS assay (FIG. 3B).
3T3 cells were first incubated with either 1 mM of sodium chloroaurate or albumin-GNCs (0.1 mM Au^0)in cell culture media for 10 hours. Then, the cells including the nontreated control were irradiated with X-rays at dosages of 0, 4 and 6 Gy in the X-ray X-RAD 225 CX irradiator system (Precision).
In our future studies we will use a standard clonogenic survival assay for quantitation of the radiosensitization effect.

For Nc1ccn([C@@H]2O[C@H](CO)[C@@H](O)C2(F)F)c(=O)n1 [gemcitabine], which “overall survival (OS)” value (pancreatic cancer) is on record?
Its value is 13.9 months.

What does the source list for [Cl][Au-]([Cl])([Cl])[Cl].[Na+] [sodium chloroaurate]?
intracellular distribution of fluorescence from GNCs ([1]; MIAPACA2, optical sectioning): uniformly distributed throughout the intracellular space with a significant fraction in nuclei; GNC fluorescence / GNC formation ([1]; MIAPACA2, 1 mM, 24 hours, 561 nm excitation, 610 nm emission): striking increase in GNC formation; radiosensitization by in situ synthetized GNCs as compared to Albumin-GNC control (MTS) [2]: significant increase in radiosensitization
